{
  "source": "paper PMC3345309",
  "about": "(Hepatology (Baltimore, Md.), 2012)",
  "origin": "cited, not measured here",
  "key": {"[1]": {"tested_on": "NS5A-augmented HCV IRES-mediated translation", "details": "ref [18]"}, "[2]": {"tested_on": "HCV Renilla reporter virus", "details": "ref [18]"}},
  "data": [
    {"smiles": "O=c1c(O)c(-c2ccc(O)c(O)c2)oc2cc(O)cc(O)c12", "note": "[Quercetin]", "values": [
      {"measurement": "effect on NS5A-augmented IRES-mediated translation", "setting": "[1]", "value": "blocked"},
      {"measurement": "effect on virus production", "setting": "[2]", "value": "blocked"}
    ]}
  ]
}
